In US8673587B2, “Methods for identifying allosteric and other novel acyl-coenzyme A:cholesterol acyltransferase inhibitors” (Trustees of Dartmouth College, priority 2010, dated 2014):
pEC50: −log10 of the molar value.

Key:
[1] = target: T1, histidine-tagged recombinant human ACAT1 (Homo sapiens, UniProt P35610, M1L); test: Steroid (pregnenolone/DHEA/E2) esterification in mixed micelles, ACAT1 as enzyme source; assay type: biochemical; details: for activation of pregnenolone esterification by sterol: sterol at 0.32 mM, 1 μM [3H]-pregnenolone; for ACAT1 substrate activity: 1 μM [3H]-steroid
T1 construct: hACAT-1 cDNA (nucleotide residues 1397-3046, a total of 550 amino acids); made in house; partially purified on a nickel column
T1 sequence (P35610 1-550 M1L): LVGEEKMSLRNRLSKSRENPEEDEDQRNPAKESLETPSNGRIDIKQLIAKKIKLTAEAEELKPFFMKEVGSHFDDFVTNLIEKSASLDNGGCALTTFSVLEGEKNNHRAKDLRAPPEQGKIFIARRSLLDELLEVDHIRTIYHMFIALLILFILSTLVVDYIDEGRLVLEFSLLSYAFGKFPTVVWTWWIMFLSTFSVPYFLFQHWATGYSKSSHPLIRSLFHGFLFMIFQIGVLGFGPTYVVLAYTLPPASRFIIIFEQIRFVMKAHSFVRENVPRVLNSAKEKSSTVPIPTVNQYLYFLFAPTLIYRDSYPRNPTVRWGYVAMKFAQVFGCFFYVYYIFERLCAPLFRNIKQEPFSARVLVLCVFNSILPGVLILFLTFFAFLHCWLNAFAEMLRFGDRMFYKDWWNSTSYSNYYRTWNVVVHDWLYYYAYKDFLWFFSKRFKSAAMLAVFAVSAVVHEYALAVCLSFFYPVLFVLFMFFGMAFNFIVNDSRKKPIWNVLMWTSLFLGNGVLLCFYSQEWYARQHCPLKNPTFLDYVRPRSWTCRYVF
Excerpt: (§1) The method of the present invention was developed in experiments using a mixed micelle enzyme assay system. […] A candidate ACAT inhibitor is an allosteric inhibitor if it is shown in the method of the present invention to inhibit cholesterol-dependent pregnenolone esterification but not to inhibit the basal pregnenolone esterification when cholesterol is absent in the assay mixture. […] In the assay system of the present invention, the source of ACAT was histidine-tagged recombinant human ACAT1 or human ACAT2, stably expressed in Chinese hamster ovary (CHO) cells that lack endogenous ACAT activity. However, one of skill in the art could employ other suitable mammalian cell systems as needed. The enzyme preparations used in the present method were partially purified through the use of nickel column chromatography, as described previously (Liu et al. 2005. Biochem. J. 391:389-397), using cells that stably expressing histidine-tagged recombinant human ACAT1 or human ACAT2 as the enzyme source.
(§2) In developing the method of the present invention, a series of experiments was performed. Pregnenolone is one compound that contains the classical A, B, C, D steroid rings as well as a 3 beta-OH moiety. Based on its structure, pregnenolone may be an ACAT substrate. However, this possibility had not previously been tested experimentally. In the present invention, the activity of pregnenolone was tested by using radiolabeled pregnenolone ([^3H]-pregnenolone) in a mixed micelle enzyme assay mixture that contained the detergent taurocholate (or CHAPS), phosphatidylcholine, and oleyl-coenzyme A bound to bovine serum albumin (BSA). The enzyme used was histidine-tagged human ACAT1 or human ACAT2. The esterification of pregnenolone (i.e., formation of pregnenolone oleate) was monitored by performing lipid extraction to isolate [^3H]-pregnenolone oleate and [^3H]-pregnenolone. [^3H]-pregnenolone oleate was then separated from [^3H]-pregnenolone by using conventional thin-layer chromatography. Levels of [^3H]-pregnenolone oleate formed was measured using a scintillation counter. […] Thus, using ACAT1 as the enzyme source, the esterification of DHEA was examined (FIG. 1C).
A pregnenolone substrate saturation curve was then constructed, with or without addition of cholesterol to the assay mixture, using ACAT1 as the enzyme source (FIG. 2A). […] Then, a DHEA substrate saturation curve was constructed, with cholesterol present.
Further experiments were performed to examine the effect of adding various non-oxysterols, at a concentration of 0.32 mM, on pregnenolone esterification in vitro, with ACAT1 as the enzyme source.
(§3) To assay the enzyme, the pregnenolone/detergent/PC micelles and the cholesterol/detergent/PC micelles were prepared individually as follows: the radiolabeled pregnenolone/PC mixture or the cholesterol/PC mixture was prepared as described previously (Shi et al. 1989. Biochim. Biophys. Acta 982:187-195) and lyophilized to remove residual organic solvents. After lyophilization, the detergent sodium taurocholate (or other detergent such as CHAPS) in Buffer A was added to reach a final concentration of 10 mg/ml. The mixture was purged with nitrogen, followed by sonication until this mixture was clear. The pregnenolone/PC micelles were mixed with the cholesterol/PC micelles such that the cholesterol concentration is at 0 mM or at 0.32 mM, and the radioactive pregnenolone concentration is at 1 μM (specific activity 20 Ci/mmol).

[2] = system: amyloid precursor protein (APP); details: cited from earlier work
[3] = target: T2, HisACAT1/FLAG (recombinant hACAT1) (Homo sapiens, UniProt P35610, M1L); test: Ligand binding by change in intrinsic (tryptophan) fluorescence of HisACAT1/FLAG; details: for maximal increase in fluorescence peak height with respect to unliganded ACAT1 protein: excitation 295 nm, peak 330 nm
T2 construct: hACAT1 contains 550 amino acids; made in house
T2 sequence (P35610 1-550 M1L): T1 sequence (P35610 1-550 M1L)
Excerpt: Fluorescence measurements were generated using an ISS PC1 photocounting fluorescence spectrophotometer (model 90095). This instrument has continuously reproducible slits ranging from 0.4 to 32 nm band-pass. The excitation slit width was set at 2 nm. The wavelength for excitation was set at 295 nm in order to minimize the contribution of tyrosine residues to the fluorescence. Purified HisACAT1/FLAG was concentrated using 30K AMICON centrifugal filters such that the final concentration of the protein was 100-200 ng/μL (1.5-3 μM). Purified protein was stored at −80° C. until used. Unless stated otherwise, the fluorescence measurements were performed at pH 7.8 with 50 mM potassium phosphate, 0.5M KCl, and 8.13 mM CHAPS. Sterol (cholesterol, epicholesterol, coprostanol, and epicoprostanol) was prepared as CHAPS/PC/sterol mixed micelles (with CHAPS at 8.13 mM, PC at 4 mM, and with varying concentrations of sterols as indicated) and stored at 20° C. in the dark until usage. The fatty acyl-CoAs were dissolved in 20 mM sodium acetate at pH 6.4 as a 2 mM stock and stored at −80° C. until used. Before the experiment started, all reagents were kept on ice in the dark. To begin the experiment, 50 μL of mixed micelles without or with sterols was added into a HELLMA microcuvette with 3 mm light path. Twenty-five microliters of ACAT1 protein (in 8.13 mM CHAPS and 0.5 M KCl) was then added and rapidly mixed. Fluorescence was monitored within 15 seconds of adding the enzyme. The sample compartment of the instrument was maintained at 20° C. The fluorescence emission spectrum was scanned in 2 minutes between 310 and 410 nm. The differences in fluorescence intensity at 10 intervals within 325-335 nm were averaged in order to calculate the ΔF value between the ligated protein vs that of the unligated protein.
Binding studies were subsequently conducted by monitoring the effect of increasing concentrations of oleoyl-CoA on the intrinsic fluorescence of HisACAT1/FLAG. […] However, the maximal change in the peak of the spectrum was much smaller (5% with respect to the unliganded protein). […] The data was analyzed for a simple bimolecular dissociation equilibrium using the PRISM program.
Binding experiments were subsequently performed by monitoring the effect of increasing concentrations of cholesterol, from 10 to 600 μM, on the intrinsic fluorescence of HisACAT1/FLAG. […] It was estimated that the cholesterol concentration that caused half-maximal spectral change was 35 μM. […] The changes in the intrinsic fluorescence of ACAT1 caused by cholesterol, epicholesterol, coprostanol, or epicoprostanol as the ligand were also compared.

[4] = target: T3, histidine-tagged recombinant human ACAT2 (Homo sapiens, UniProt O75908); test: Pregnenolone esterification in mixed micelles, ACAT2 as enzyme source; assay type: biochemical; details: ACAT2; for activation of pregnenolone esterification by sterol: sterol at 0.32 mM, 1 μM [3H]-pregnenolone
T3 construct: made in house; partially purified on a nickel column
T3 sequence (O75908 1-522): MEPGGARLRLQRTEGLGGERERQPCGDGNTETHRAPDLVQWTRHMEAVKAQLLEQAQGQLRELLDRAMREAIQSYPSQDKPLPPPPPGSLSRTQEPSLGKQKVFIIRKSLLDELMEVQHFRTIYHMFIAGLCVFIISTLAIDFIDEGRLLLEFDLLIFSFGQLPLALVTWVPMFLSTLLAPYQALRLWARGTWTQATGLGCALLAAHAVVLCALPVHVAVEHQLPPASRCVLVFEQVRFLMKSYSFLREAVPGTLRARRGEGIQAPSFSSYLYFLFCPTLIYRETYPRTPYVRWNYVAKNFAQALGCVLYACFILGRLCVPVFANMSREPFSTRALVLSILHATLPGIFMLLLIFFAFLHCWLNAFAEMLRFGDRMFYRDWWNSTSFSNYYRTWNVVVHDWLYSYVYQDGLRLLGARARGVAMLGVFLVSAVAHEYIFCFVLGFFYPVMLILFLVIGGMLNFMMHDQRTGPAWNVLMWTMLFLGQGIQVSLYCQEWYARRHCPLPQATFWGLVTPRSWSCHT
Excerpt: as §1, §2, §3

SMILES: CC(C)CCCC(C)C1CCC2C3CC=C4CC(O)CCC4(C)C3CCC12C (single isomer, unassigned) [enantiomeric (ent-)cholesterol]
- activation of pregnenolone esterification by sterol ([1]; ACAT1): much less efficiently than sitosterol

SMILES: CC(C)CCC[C@@H](C)[C@H]1CC[C@H]2[C@@H]3[C@H](O)C=C4C[C@@H](O)CC[C@]4(C)[C@H]3CC[C@]12C [7-alpha-OH-cholesterol]
- activation of pregnenolone esterification by sterol ([1]; ACAT1): least activation

SMILES: CC(C)CC[C@@H](O)[C@@H](C)[C@H]1CC[C@H]2[C@@H]3CC=C4C[C@@H](O)CC[C@]4(C)[C@H]3CC[C@]12C [22R-hydroxy-cholesterol]
- activation of pregnenolone esterification by sterol ([1]; ACAT1): least activation

SMILES: CCCCCCCC[C@H](SCCCCCC)C(=O)Nc1c(SC)cc(C)nc1SC [CP113818]
- full-length human APP content ([2]; animal model for AD): did not cause a reduction
- processing of APP ([2]; animal models for AD): inhibit the processing of both human amyloid precursor protein (APP) and mouse APP

SMILES: C[C@]12CC[C@H](O)CC1=CC[C@@H]1[C@@H]2CC[C@]2(C)C(=O)CC[C@@H]12 [DHEA, dihydroepiandrosterone]
- ACAT1 substrate activity ([1]; absence of cholesterol): did not exhibit ACAT substrate activity
- ACAT1 substrate activity ([1]; presence of excess cholesterol (0.32 mM)): exhibited significant substrate activity
- apparent Km as ACAT1 substrate ([1]; with cholesterol present in vitro (0.32 mM)): too high to be measurable

SMILES: CC(C)CCC[C@@H](C)[C@H]1CC[C@H]2[C@@H]3CC=C4C[C@H](O)CC[C@]4(C)[C@H]3CC[C@]12C [Epi-cholesterol]
- maximal increase in fluorescence peak height with respect to unliganded ACAT1 protein [3]: much smaller than those caused by cholesterol
- concentration that caused half-maximal spectral change ([3]; ligand 10 to 600 μM): too small to derive a reliable binding curve
- activation of pregnenolone esterification by sterol ([1]; ACAT1): much less efficiently than sitosterol

SMILES: CC[C@H](CC[C@@H](C)[C@H]1CC[C@H]2[C@@H]3CC=C4C[C@@H](O)CC[C@]4(C)[C@H]3CC[C@]12C)C(C)C [Sitosterol]
- activation of pregnenolone esterification by sterol [4]: only slightly activated
- activation of pregnenolone esterification by sterol ([1]; ACAT1): not as efficiently as cholesterol

SMILES: CC(C)CCC[C@@H](C)[C@H]1CC[C@H]2[C@@H]3CC=C4C[C@@H](O)CC[C@]4(C)[C@H]3CC[C@]12C [cholesterol]
- activation of pregnenolone esterification ([4]; cholesterol added to assay mixture): more than 100 fold
- activation of pregnenolone esterification by sterol [4]: maximal activation
- maximal increase in fluorescence peak height with respect to unliganded ACAT1 protein [3]: up to 35%
- pEC50 ([3]; ligand 10 to 600 μM, read-out: concentration that caused half-maximal spectral change): 4.46
- activation of pregnenolone esterification ([1]; ACAT1, cholesterol added to assay mixture): more than 100 fold
- activation of pregnenolone esterification by sterol ([1]; ACAT1): maximal activation

SMILES: CC(C)[C@@H](C)/C=C/[C@@H](C)[C@H]1CC[C@H]2C3=CC=C4C[C@@H](O)CC[C@]4(C)C3=CC[C@]12C [dehydroergosterol]
- activation of pregnenolone esterification by sterol ([1]; ACAT1): much less efficiently than sitosterol

SMILES: CCCCCCCCCCCCCCCCCC(=O)SCCNC(=O)CCNC(=O)[C@H](O)C(C)(C)COP(=O)(O)OP(=O)(O)OC[C@H]1O[C@@H](n2cnc3c(N)ncnc32)[C@H](O)[C@@H]1OP(=O)(O)O [stearoyl-CoA]
- maximal increase in fluorescence peak height with respect to unliganded ACAT1 protein [3]: 5%
- dissociation constant ([3]; simple bimolecular dissociation equilibrium, PRISM): too small to derive a reliable dissociation constant
